Source: US20250248975
Where two headings read alike, the source gives them in different places.

**Q.** With `COC(=O)/C=C/c1cccc(C2(C)CCCC#Cc3nc(cs3)Cc3c(c(F)cc4c3ccn4S(=O)(=O)c3ccc(C)cc3)Oc3ccc(F)c(c3)-c3ncc2[nH]3)c1` (centres unmarked) as the compound, how does the ring closure, isolated yield (from C#CCCCC(C)(c1cccc(/C=C/C(=O)OC)c1)c1cnc(-c2cc(Oc3c(F)cc4c(ccn4S(=O)(=O)c4ccc(C)cc4)c3Cc3csc(I)n3)ccc2F)[nH]1, cc_pd bond, 19-membered ring, PdCl2(PPh3)2/CuI/TEA, DMF, 10.6 mM, 60.0 °C) read?
**A.** 15%

**Q.** Which ring closure, isolated yield (the molecule shown is the open-chain precursor, triazole bond, 19-membered ring) does the source give for `C#CC(C)(C)CCCCC(C)(c1cccc(CCC(=O)OC)c1)c1csc(-c2cc(Oc3c(F)cc4[nH]ccc4c3CN=[N+]=[N-])ccc2F)n1` (centres unmarked) here?
**A.** 77%

**Q.** Which ring closure, isolated yield (rcm bond, 19-membered ring) does the source give for `Cn1nc2nc1-c1cc(ccc1F)Sc1c(F)cc3c(ccn3S(=O)(=O)c3ccccc3)c1Cn1cc(cn1)C(C)(C)C/C=C\CC2(C)c1cccc(Br)c1` (centres unmarked) here?
**A.** 79%

**Q.** Which ring closure, isolated yield (triazole bond, 19-membered ring, 4 steps) does the source give for `Cn1nc2nc1-c1cc(ccn1)Oc1c(F)cc3[nH]ccc3c1Cn1cc(nn1)C(C)(C)CCCC[C@]2(C)c1cccc(I)c1` here?
**A.** 22.1%

**Q.** With “Mixture of 21-(benzenesulfonyl)-6-(3-bromophenyl)-24,30-difluoro-10,10-dimethyl-9,26-dioxa-5,12,13,21,33-pentazahexacyclo[25.3.1.12,5.112,15.017,25.018,22]tritriaconta-1(31),2(33),3,13,15(32),17,19,22,24,27,29-undecaene and 22-(benzenesulfonyl)-7-(3-bromophenyl)-25,31-difluoro-11,11-dimethyl-10,27-dioxa-5,6,13,14,22-pentazahexacyclo[26.3.1.113,16.02,6.018,26.019,23]tritriaconta-1(32),2,4,14,16(33),18,20,23,25,28,30-undecaene” as the compound, how does the ring closure, isolated yield (other bond, 19-membered ring, CMBP, 1,4-dioxane, 24.7 mM, 145.0 °C) read?
**A.** 55%

**Q.** For `CCOC(=O)C(C)Cc1cccc(C2(C)CCC(C)(C)COc3ccn(n3)Cc3c(c(F)cc4c3ccn4S(=O)(=O)c3ccccc3)Oc3ccc(F)c(c3)-c3nc2nn3C)c1` (single isomer, unassigned; isomer 2), which ring closure, isolated yield (from CCOC(=O)C(C)Cc1cccc(C(C)(CCC(C)(C)COc2cc[nH]n2)c2nc(-c3cc(Oc4c(F)cc5c(ccn5S(=O)(=O)c5ccccc5)c4CO)ccc3F)n(C)n2)c1, other bond, 18-membered ring, CMBP, toluene, 13.6 mM, 150.0 °C, 1.0 h) is on record?
**A.** 21%

**Q.** For `CC1(c2cccc(I)c2)CCCC(O)CNC(=O)/C=C/c2c(c(F)cc3[nH]ccc23)Oc2ccc(F)c(c2)-c2ncc1[nH]2` (centres unmarked), which ring closure, isolated yield (from CC(CCCC(O)CN)(c1cccc(I)c1)c1cnc(-c2cc(Oc3c(F)cc4[nH]ccc4c3/C=C/C(=O)O)ccc2F)[nH]1, amide bond, 19-membered ring, EDC.HCl/HOBt, THF/DMF 10:1, 102.0 mM, 18.0 h) is on record?
**A.** 40%

**Q.** Which ring closure, isolated yield (rcm bond, 19-membered ring, Grubbs II, toluene, 100.0 °C) does the source give for `Cn1nc2nc1-c1cc(ccc1F)Oc1c(F)cc3c(ccn3S(=O)(=O)c3ccccc3)c1Cn1cc(cn1)C(C)(C)C/C=C\CC2(C)c1cccc(Br)c1` (centres unmarked) here?
**A.** 62%

**Q.** For `CCOC(=O)CCc1cccc(C2CC/C=C/CC(C)(C)c3cnn(c3)Cc3c(c(F)cc4c3ccn4S(=O)(=O)c3ccc(C)cc3)Oc3ccc(F)c(c3)-c3ccn2n3)c1` (centres unmarked), which ring closure, isolated yield (from C=CCCC(c1cccc(CCC(=O)OCC)c1)n1ccc(-c2cc(Oc3c(F)cc4c(ccn4S(=O)(=O)c4ccc(C)cc4)c3Cn3cc(C(C)(C)CC=C)cn3)ccc2F)n1, rcm bond, 20-membered ring, Hoveyda-Grubbs II, toluene, 1.26 mM, 60.0 °C, 12.0 h) is on record?
**A.** 66%

**Q.** Which ring closure, isolated yield (from C#CC(C)(C)OCCCC(C)(c1cccc(Br)c1)c1cn(C)c(-c2cccc(Oc3c(F)cc4[nH]ccc4c3CN=[N+]=[N-])c2)n1, triazole bond, 19-membered ring, Cu(MeCN)4BF4/TBTA, DCM, 3.2 mM, 45.0 °C) does the source give for `Cn1cc2nc1-c1cccc(c1)Oc1c(F)cc3[nH]ccc3c1Cn1cc(nn1)C(C)(C)OCCCC2(C)c1cccc(Br)c1` (centres unmarked) here?
**A.** 60%

**Q.** For “Methyl (2R)-3-[3-[21-(benzenesulfonyl)-9,9,24,30-tetrafluoro-3,6-dimethyl-)1-oxa-26-thia-3,4,15,21,32,33-hexazahexacyclo[25.3.1.12,5.112,15.017,25.018,22]tritriaconta-1(31),2(33),4,12(32),13,17,19,22,24,27,29-undecaen-6-yl]phenyl]-2-methylpropanoate”, which ring closure, isolated yield (other bond, 19-membered ring, CMBP, toluene, 150.0 °C, 3 steps) is on record?
**A.** 11.6%

**Q.** Which ring closure, isolated yield (from C#CC(C)(C)COCCC(c1cccc(Br)c1)n1ccc(-c2cc(Sc3c(F)cc4c(ccn4S(=O)(=O)c4ccc(C)cc4)c3CN=[N+]=[N-])ccc2F)n1, triazole bond, 19-membered ring, Cu(MeCN)4BF4 (0.1 eq)/TBTA (0.1 eq), DCM, 43.4 mM, 45.0 °C) does the source give for `Cc1ccc(S(=O)(=O)n2ccc3c4c(c(F)cc32)Sc2ccc(F)c(c2)-c2ccn(n2)C(c2cccc(Br)c2)CCOCC(C)(C)c2cn(nn2)C4)cc1` (centres unmarked) here?
**A.** 61%

**Q.** For `CCOC(=O)C(C)Cc1cccc(C2(C)CCC(C)(C)COc3cn(nn3)Cc3c(c(F)cc4c3ccn4S(=O)(=O)c3ccccc3)Oc3ccc(F)c(c3)-c3nc2nn3C)c1` (centres unmarked), which ring closure, isolated yield (from CCOC(=O)C(C)Cc1cccc(C(C)(CCC(C)(C)CO)c2nc(-c3cc(Oc4c(F)cc5c(ccn5S(=O)(=O)c5ccccc5)c4Cn4cc(O)nn4)ccc3F)n(C)n2)c1, ether bond, 19-membered ring, CMBP, toluene, 11.3 mM, 150.0 °C, 1.0 h) is on record?
**A.** 50%

**Q.** For `Cc1ccc(S(=O)(=O)n2ccc3c4c(c(F)cc32)Sc2cccc(c2)-c2ccn(n2)C(c2cccc(Br)c2)CCCCC(C)(C)c2cn(nn2)C4)cc1` (centres unmarked), which ring closure, isolated yield (triazole bond, 19-membered ring, 3 steps) is on record?
**A.** 22.5%
